Experiment [1] concerns C57BL/6J mice subjected to controlled closed cortical impact (CCCI). The experiment in a line: Post-traumatic seizures after CCCI blunt TBI, video/EEG monitoring. The class given is in vivo, mouse. As to conditions: RTG 1.2 mg/kg i.p. 30 minutes post-TBI, video/EEG three days starting 24 hours after injury. The text has this: Male and female mice were used for all experiments performed, except for GFAP, Iba1 and Fluro-Jade B histology experiments and for PSVue794 and Evans Blues imaging.
Animals were divided randomly among cohorts so that each cage included animals from all treatments.
The CCCI model was used to generate reproducible moderate blunt brain injury. This model has the advantages of producing focal contusion in which the skull remains intact. CCCI can most closely simulate blunt-head traumas resulting from falls, physical violence, or motor vehicle accidents and particularly in rodent models often produces spontaneous seizures within 24 hours.
A single trauma per mouse was employed. CCCI was delivered by a pneumatic impact device (Leica Biosystems) following a protocol previously published. A cylindrical probe of 5 mm diameter was used to deliver a calibrated impact to the skull, 1 mm depth over the right parietal cortex and a small portion of the caudal end of the right frontal cortex, at a velocity of 4.5 m/s to produce a moderate TBI. […]
To quantify seizure frequency and determine seizure susceptibility, mice of each cohort were implanted with electroencephalogram (EEG) electrodes 24 hours after CCCI or Sham. […]
Computer-assisted cortical EEGs was recorded and reviewed for the presence of seizures and epileptiform spikes. […] Detected events were visually confirmed by blinded experimenters.

Experiment [2] concerns mice subjected to CCCI, subthreshold pilocarpine. The experiment is described as follows: Pilocarpine-induced seizure susceptibility after CCCI. The class given is in vivo, mouse. As to conditions: three subthreshold pilocarpine doses on fifth day after CCCI; RTG 1.2 mg/kg i.p. 30 min post-TBI. How it is done: Pilocarpine is a cholinomimetic drug widely used as a chemo-convulsant in animal models to induce status epilepticus. To minimize pilocarpine-induced peripheral cholinergic effects and mortality, animals were pretreated with scopolamine methyl nitrate (i.p. 1 mg/kg; MP Biomedicals) 30 minutes prior to pilocarpine injection. Both drugs were diluted in sterile 0.9% (w/v) saline. Immediately after pilocarpine injection, cortical activity was monitored for 24 hours by video/EEG recording.

Experiment [3] deals with c-Fos. The experiment in a line: c-Fos expression (FosTRAP mice) in hippocampal CA1 after blunt TBI. Type of experiment: in vivo, mouse. As to conditions: tamoxifen 30 days after single blunt TBI; acute RTG treatment. The text has this: Transgenic “FosTRAP” mice were used to study neuronal activity in sub-cortical regions following blunt TBI (the CCCI model as described above). These mice express the fluorescent protein, tdTomato, under the control of the neuronal promoter c-Fos, an “early intermediate gene” transcriptional factor that correlates well with heavy neuronal activity. Accordingly, whenever neurons express c-Fos, tdTomato is also expressed, allowing for an optical reporter of prior neuronal activity.
Because these transgenic mice express tdTopmato via the tamoxifen-inducible Cre/IoxP system, mice were injected (i.p.) with tamoxifen (75 mg/kg) 30 days after a single blunt TBI (i.e., CCCI), and samples were collected 5 days after injection.
Slices (200 μm) of each collected sample were infused with 4% (w/v) PFA for 10 minutes at RT, washed 5× in PBS and blocked with 8% (v/v) donkey serum (Sigma-Aldrich) diluted in PBS, 0.1% (v/v) Triton X-100 (Sigma-Aldrich), and 0.1% (v/v) Tween 20 (Thermo Fisher Scientific). […] A Nikon Eclipse FN1 microscope with 10× and 40× Plan Fluor objectives was used for detection of fluorescence. […] Cell count was obtained by non-biased automatic quantification with ImageJ. […] ROIs were determined automatically using the “analyze particles” function of ImageJ, with size set to 200-8000 and circularity set to 0.00-1.00.

For experiment [4], the system named is mice subjected to one blunt TBI (CCCI). The experiment is described as follows: Dosage optimization: spontaneous myoclonic seizures after one blunt TBI (CCCI). Type of experiment: in vivo, mouse. The settings on record: RTG 0.3, 1 and 3 mg/kg i.p. once 30 minutes post-TBI; second to fourth day. As to the method:
An additional KCNQ2/3-specific compound, RL648_81 was also administered in the same manner (0.03 mg/kg, 0.1 mg/kg, and 0.3 mg/kg). […] To monitor the occurrence of spontaneous myoclonic seizures after, the mice were video/EEG monitored from the second to the fourth day after the TBI (72 hours total).

Experiment [5] deals with mice subjected to one blunt TBI, pentylenetetrazol (PTZ). The experiment is described as follows: PTZ-induced seizure susceptibility after one blunt TBI (CCCI). The class given is in vivo, mouse. As to conditions: RTG at 1 mg/kg; PTZ 35 mg/kg s.c. fifth day post-TBI. An excerpt: Stimulation with PTZ induced the occurrence of clonic and tonic-clonic seizures in TBI-subjected mice.

Experiment [6] deals with mice subjected to one blunt TBI, PTZ. The experiment in a line: Treatment window study: PTZ-induced seizure duration after one blunt TBI. The class given is in vivo, mouse. As to the method: Mice were video-EEG monitored for 24 hours after stimulation with a normally sub-seizure threshold dose of PTZ (35 mg/kg; s.c.) administered on the fifth day post-TBI, which caused the mice to respond with prolonged seizures. […] A TBI cohort (vehicle only) was also assessed for control purposes.

For experiment [7], the system named is sympathetic neuron. The experiment is described as follows: Action potential firing in a sympathetic neuron, current-clamp.
Source text: Various currents are applied in “current-clamp” mode 44 ranging from 50 pA to −100 pA, and the resulting AP firing recorded.
Experiment [8] has as its system C57BL/6J mice subjected to three blast TBIs. The experiment is described as follows: Repetitive blast TBI (rbTBI): post-traumatic seizures and post-traumatic epilepsy, video/EEG.
Procedure: Adult 12-week-old male C57BL/6J mice (Jackson Labs, Bar Harbor, Me.) were group-housed with food and water ad libitum in 12:12 hour light: dark cycle. […] Experimenters were blinded to group allocation during data collection and analysis.
The shock tube (Applied Research Associates) had and inner diameter of 17 inches and a about 36-inch end opening. […] Before reaching the mice, the air blast wave passed through a 0.016-inch-thick aluminum membrane of alloy AL-2200. Pencil probe gauges (PCB Piezotronics) were placed beside the mice to monitor the pressure of the air-driven blast wave. […] During the procedure, mice were anesthetized using ketamine (25-75 mg/kg) and dexmedetomidine (0.25 mg/kg). The animals were subjected to three directed head-on blast TBI with 24 hours intervals between each injury. On the first day of blast exposure, animals were given a subcutaneous injection of buprenorphine SR (1.2 mg/kg) in the interscapular region.
Sham animals were anesthetized and placed in the shock tube but were not subjected to the rbTBI. After each blast exposure, mice were given one subcutaneous injection of atipamezole (1 mg/kg) to reverse the anesthesia and placed into a recovery chamber with controlled temperature. On the following days, mice were monitored for signs of pain and distress.
Mice from the “TBI” group were injected with the same volume of vehicle solution only.
Seizures were identified visually by the investigator's analysis of the video/EEG records. The number of seizures, latency to the first seizure, seizure duration, and percentage of mice from each group that had seizures were quantified.

In the case of `CCOC(=O)Nc1ccc(NCc2ccc(F)cc2)cc1N` [RTG, 2-amino-4-(4-fluorobenzylamino)-1-ethoxycarbonylaminobenzene], the “mice displaying post-traumatic seizures” value in experiment [1] is “no animal treated with RTG post-TBI displayed seizures and zero”. Besides, the “pilocarpine-induced abnormal spike activity” value in experiment [2] was “significant reduction of pilocarpine-induced abnormal spike activity”. Besides, the “c-Fos expression, hippocampal CA1” value in experiment [3] is recorded as “significantly less c-Fos than the TBI cohort”. Besides, the “occurrence of myoclonic seizures post-TBI” value in experiment [4] is given as “significantly reduced the occurrence of myoclonic seizures”. Besides, the “occurrence of PTZ-induced seizures” value in experiment [5] is given as “completely blocked the occurrence of PTZ-induced seizures”. Besides, the PTZ-induced seizure duration result is on record as “significantly reduced induced seizure duration” in experiment [6] (RTG 1 mg/kg i.p. at 1-hour post-TBI); “Lesser effects were observed” in experiment [6] (RTG 1 mg/kg i.p. at 2 hours and 6 hours post-TBI). Also, the “action potential firing in response to stimuli” value in experiment [7] was “Complete silencing of the neuron occurs”. Moreover, the “duration of post-traumatic seizures (PTS)” value in experiment [8] (rbTBI, RTG 1.2 mg/kg i.p. 30 minutes after each blast, second to fourth day after TBIs) is “significantly reduced duration of the PTS”. Besides, the “mice experiencing seizures (PTE)” value in experiment [8] (rbTBI, RTG 30 minutes after each TBI, first to ninth month after final rbTBI) is “about 20%”. In addition, in experiment [8] (rbTBI, RTG 30 minutes after each blast), the “severity of post-traumatic seizures (EEG amplitude)” value is “less severe”. In addition, the “mice that developed post-traumatic epilepsy (PTE)” value in experiment [8] (three blast TBIs one day apart, RTG 30 min after each, 1 month to 12 months after injury) worked out at 25%.

These data come from patent US20220354818A1, “METHODS FOR TREATING BRAIN INJURY OR COGNITIVE DYSFUNCTION BY PHARMACOLOGICAL ENHANCMENT OF M-TYPE POTASSIUM ION CURRENTS IN NEURONS” (Advanced Neuroresearch Therapeutics LLC, priority 2019, published 2022).
